Measurements as given in paper PMC4824854, “Predictions of Cleavability of Calpain Proteolysis by Quantitative Structure-Activity Relationship Analysis Using Newly Determined Cleavage Sites and Catalytic Efficiencies of an Oligopeptide Array” (Molecular & Cellular Proteomics : MCP, 2016).
Entries after “also recorded” stand apart in the source; their conditions may differ.

T1: C1 (Merck Millipore #208712) (Sus scrofa, UniProt P35750)
T1 construct: purchased Merck Millipore 208712
T1 sequence (P35750 1-714): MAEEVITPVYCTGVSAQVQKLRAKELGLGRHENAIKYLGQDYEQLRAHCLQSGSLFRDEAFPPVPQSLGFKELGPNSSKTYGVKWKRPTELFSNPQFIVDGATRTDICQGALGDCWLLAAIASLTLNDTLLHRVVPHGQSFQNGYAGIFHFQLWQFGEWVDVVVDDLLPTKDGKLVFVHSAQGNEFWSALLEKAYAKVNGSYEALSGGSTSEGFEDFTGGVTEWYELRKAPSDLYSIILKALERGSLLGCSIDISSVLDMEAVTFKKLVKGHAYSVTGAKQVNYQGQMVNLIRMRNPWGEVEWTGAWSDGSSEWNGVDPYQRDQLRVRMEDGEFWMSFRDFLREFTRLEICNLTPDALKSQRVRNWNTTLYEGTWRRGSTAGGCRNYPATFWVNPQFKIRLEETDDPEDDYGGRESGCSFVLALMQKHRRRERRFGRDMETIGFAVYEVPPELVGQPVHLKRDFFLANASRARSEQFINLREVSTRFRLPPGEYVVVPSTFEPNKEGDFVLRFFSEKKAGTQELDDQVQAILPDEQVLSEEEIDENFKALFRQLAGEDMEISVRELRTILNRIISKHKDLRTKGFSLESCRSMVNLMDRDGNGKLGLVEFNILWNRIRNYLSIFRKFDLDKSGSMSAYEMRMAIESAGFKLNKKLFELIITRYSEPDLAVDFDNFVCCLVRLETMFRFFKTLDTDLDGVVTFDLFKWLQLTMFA
T1 sequence (P04574 1-266 partner): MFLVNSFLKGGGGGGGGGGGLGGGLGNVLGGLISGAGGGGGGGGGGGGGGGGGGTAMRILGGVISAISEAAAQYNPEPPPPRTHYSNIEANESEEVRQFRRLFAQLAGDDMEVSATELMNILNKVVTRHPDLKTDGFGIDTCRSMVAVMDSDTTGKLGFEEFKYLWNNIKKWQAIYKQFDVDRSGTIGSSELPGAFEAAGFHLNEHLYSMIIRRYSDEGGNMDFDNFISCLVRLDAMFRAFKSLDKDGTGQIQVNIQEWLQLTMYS


Legend:
[1] = system: calpains; conditions: cited from earlier work
Description: This activity is mainly achieved by an ∼10^4-fold increase in the kcat without a significant change in the Km ([39]), by an unknown mechanism. Although this amidase-like calpain activity may be involved in as-yet-unknown physiological functions, there has been no further report on it.

[2] = biological target: T1, C1 (Merck Millipore #208712); test: Cleavage sites in whole proteins by N-terminal sequencing and MS/MS; type: biochemical; conditions: C1 0.9 pmol, 100 mM Tris-HCl pH 7.5, 5 mM CaCl2, 30 °C, 20 min; peptide sequencing and LC-MS/MS
Experimental: Human heart troponin T2 (Merck 648484–100UGA, ca. 30 pmol) and horse myoglobin (Sigma-Aldrich, M0630, ca. 60 pmol) were digested with C1 (Merck Millipore #208712, 0.9 pmol) in 50 μl of 100 mM Tris-HCl (pH 7.5), 1 mM DTT, and 5 mM CaCl2 at 30 °C for 20 min. The digested samples were directly separated by SDS-PAGE, and the proteolyzed fragments were then blotted onto a PVDF membrane and subjected to peptide sequencing analysis (AproScience Inc., Tokushima, Japan). For sequence analysis by MS, the same digestion reactions were performed, terminated by adding a 3-fold volume of 7% TCA followed by incubation on ice for 30 min, spun (20,000 × g, 2 °C, 10 min), and the supernatant was collected. An aliquot of the soluble fraction was desalted and concentrated to a few μl using Zip-Tip C-18, and analyzed by Sciex 5600^+ with the Eksigent nanoLC system. The samples were analyzed in triplicate, the data were merged, and the peptide sequences were identified using ProteinPilot (Ver. 4.5) and Swiss-Prot DB (2015_08; 549,008 sequences; 195,692,017 aars) using the default parameters.

Row | Molecule | kcat/Km for hydrolysis of the NH2 group at the C terminus (amidase-like activity) [1] | calpain cleavage sites detected in the whole protein [2]
1 | RPKPQQFFGLM-NH2 [substance P] | 10^6 M^−1s^−1 | –
2 | horse myoglobin: horse myoglobin (Sigma-Aldrich, M0630; P68082) (protein, UniProt P68082 2-154, looked up) Myoglobin: GLSDGEWQQVLNVWGKVEADIAGHGQEVLIRLFTGHPETLEKFDKFKHLKTEAEMKASEDLKKHGTVVLTALGGILKKKGHHEAELKPLAQSHATKHKIPIKYLEFISDAIIHVLHSKHPGDFGADAQGAMTKALELFRNDIAAKYKELGFQG | – | Lys^51/Thr^52; also recorded: Gly^152/Phe^153
